# Reference: patent publication US9440966B2, “Compounds for treatment of metabolic syndrome” (SJT MOLECULAR RESEARCH, S.L., priority 2011, dated 2016)
# Entries after “also recorded” stand apart in the source; their conditions may differ. Counter-ions that a name gives are not always drawn.
# Columns and labels:
# [1] = tested on: normoglycemic rats; experiment: Oral glucose tolerance test in normoglycemic rats (Examples 27, 28); assay type: in vivo, Male Wistar rats; conditions: vs control group
# Protocol: Male Wistar rats were utilized provided by Mato Grosso do Sul's Federal University's Biotherium. Until the experiments were carried out, the animals have had free access to feed and water. The room temperature was kept at 22±2° C. and the light/dark cycle was of 12 hours.
# The glucose tolerance test is a reference method for the diagnosis of diabetes or glucose intolerance (5).
# Distinct rat groups were orally treated, once a day, with 3-(carbohydrazyl-N′-phenylsubstituted)-1-benzosubstituted-β-carbolinic-3-carbohydrazide (compound 7a or ANIS-BZ) at doses: 0.5, 1 or 5 mg/kg or vehicle (control) for 3 days. Similarly, another rat group received metformin (reference drug used for lowering glucose serum levels) in a 300 mg/kg dose, orally, once a day for 3 days. The oral glucose tolerance test was carried out by administering of a glucose solution (2 g/kg body mass). Glycemia was determined at zero time (before oral administering) and at 60 minutes after the glucose overload.
# Distinct groups of rats were treated orally, once a day, with N(-ethylamine)-1-benzosubstituted-β-carboline-3-carboxamide (compound 4a or ANIS-NH2) at doses: 0.5, 1 or 5 mg/kg, or vehicle for 3 days. Similarly, another group of rats received metformin in a 300 mg/kg dose orally for 3 days once a day. The oral glucose tolerance test was done under the administration of a glucose solution (2 g/kg body mass). Glycemia will be determined at the zero (before oral administration) time and 60 minutes after glucose overload.
# [2] = tested on: SHR hypertensive rats; experiment: Plasma cholesterol levels test in SHR hypertensive rats; assay type: in vivo, Male SHR; conditions: 25 days of treatment (15 mg/Kg) oral, effect more pronounced for 5a and 7a
# Protocol: (§1) Distinct rat groups were orally treated, once a day, with 5 mg/kg of compounds 4a or 5a or 6a during the first 4 days, 10 mg/kg during the next 4 days and 15 mg/kg until the end of the treatment period or vehicle (control) for the same days. Similarly, another rat group received metformin (MET) (reference drug used for lowering glucose serum levels) in a 300 mg/kg dose, orally, from day 1 to the end of the treatment. Plasma cholesterol levels were measured in triplicate 12 hours after drug administration by the cholesterol oxidase/peroxidase method (BioSystems S.A, Barcelona, Spain). Blood samples were obtained by femoral vein punction. This method was chosen because of its noninvasive character, enabling daily measurements with the same rats throughout the entire treatment.
# Male SHR were provided by Charles River Laboratories (USA). Until the experiments were carried out, the animals have had free access to feed and water. The room temperature was kept at 22±2° C. and the light/dark cycle was of 12 hours. All procedures were submitted to the Animal Experimentation Ethics Committee.
# as §1, with “metformin” for “metformin (MET)”, “Blood pressure was” for “Plasma cholesterol levels were”, “4” for “12”, “administration in warmed warmed, restrained, conscious rats” for “administration”, “tail-cuff” for “cholesterol oxidase/peroxidase”, “with a computerized oscillometric system recorder (Nyprem, Cibertec).” for “(BioSystems S.A, Barcelona, Spain). Blood samples were obtained by femoral vein punction.”
# [3] = tested on: Drosophila melanogaster (Oregon-R strain); experiment: Toxicology study: larva-to-adult viability and development time
# Source text: The purpose of this study was to test and compare the potential toxic effects of compounds 5a, 6a and 7a on the larva-to-adult viability and development time in a Drosophila melanogaster (Oregon-R) flies. These studies have a relevant predictive role with the aim to anticipate possible adverse toxicological effects that may happen during preclinical studies with animal, preferably mammals. In addition, the data provided are highly quantitative.
# Drosophila melanogaster (Oregon-R) flies were obtained by the University of the Balearic Islands (Spain). […] The larvae were seeded on standard food supplemented with the appropriate dose of compounds tested. Each compound was tested at 1, 10, 100, 1000 and 2000 μg/ml dissolved in standard food.
# Fly adults were transferred from the serial transfer system to bottles with fresh food for 24 h. Adults 5 days old were placed on egg collecting devices (layers) containing a mixture of agar, water, acetic acid, and ethyl alcohol, with a drop of active yeast on it. Every 2 h., the layer glasses were changed, in this way, the eggs of a glass have similar age, with a maximum difference of 2 h. among them. The glasses of the layers were kept at 25° C. for at least 22 h. in Petri dishes until larvae hatched. Fifty larvae were picked with a lancet under a stereoscopic microscope and were seeded into 10×2 cm vials with 5 ml food. Vials were supplemented with 4a, 5a and 7a at 1, 10 and 100 μg/ml. As positive control we used cupric acetate (toxic) at 350 μg/ml.
# The number of adult flies which emerged from each vial was counted daily until the exhaustion of the culture. The parameters studied were the larvae-to-adult viability (V) and development time.
# Viability is expressed as V=NA/NL, where NL is the input number of larvae ([…] in our case) and NA the output number of adults emerging from these NL larvae. Development time was measured in days by the formula DT=ΣNidi/ΣNi where Ni is the number of flies emerging on the day di after the larvae were placed in the medium.
# The data are expressed as the mean±SEM values from 3 independent experiments involving triplicate vials at the number of flies indicated.
# [4] = tested on: female Swiss mice; experiment: Acute oral toxicology study in a mice model; assay type: in vivo; conditions: oral 2000 mg/kg single dose, observation for 14 days
# Protocol: The experiments were conducted using female Swiss mice (20-30 g), housed under a 12-h light-dark cycle, with controlled humidity (60-80%), and temperature (22±1° C.). Food and water were freely available to the mice.
# Female mice (n=6) were orally (2000 mg/kg) administered with a single dose of 4a, 5a, and 7a for the observation of acute signs of toxicity until 14 days. […] The observations comprised the behavior and manifestations of the toxic symptoms, and were carried out according to the Guidelines of the Organization for Economic Cooperation and Development (OECD, 2008).
# All compounds were dissolved in sterile saline and were administered by oral gavage to mice based in the weight, for example 20 g received 20 μL.
# The data are expressed as mean±S.E.M. of experiments. Statistical significance was determined through one-way analysis of variances (ANOVA), followed by either Newman-Keuls test. A p<0.05 was considered statistically significant. Graphs were drawn and statistical analysis was carried out using GraphPad Prism version 5.00 for Windows (GraphPad Software, San Diego, Calif., USA).
# [5] = tested on: normoglycemic rats; experiment: Oral glucose tolerance test in normoglycemic rats (Examples 36, 37); assay type: in vivo, Male Wistar rats; conditions: 10 mg/kg orally, single dose per day
# Protocol: Male Wistar rats (200-300 g) were utilized provided by Mato Grosso do Sul's Federal University's Biotherium. Until the experiments were carried out, the animals have had free access to feed and water. The room temperature was kept at 22±2° C. with controlled humidity (60-80%) and the light/dark cycle was of 12 hours.
# The glucose tolerance test was evaluated as described by Al-Awaki et al (6).
# Rats were randomly divided into […] groups of four animals that were control group that received only a solution of saline, compound 23b group (10 mg/kg), compound 21a group (10 mg/kg) and metformin 300 mg/kg group. Respective treatments were made orally and daily for five days.
# (§2) On day 1, 3, and 5, different groups of rats were fasted overnight (at least 12 h) prior to the test, but with given water ad libitum. The oral glucose tolerance test was carried out by administering of a glucose solution (2 g/kg body weight) according to Al-Awadi et al (6). Glycemia was determined in blood samples collected from the tail vein at −30 minutes (just before the administration of the oral extract) time 0 (prior to the glucose overload) and at 60 minutes after the glucose overload. Serum glucose concentrations were measured by the glucose oxidase method (7) using commercial kit (Accuchek-performa (Roche)) according to the manufacture's instructions.
# Male Wistar rats (200-300 g) were utilized provided by Mato Grosso do Sul's Federal University's Biotherium. Until the experiments were carried out, the animals have had free access to feed and water. The room temperature was kept at 22±2° C. with controlled humidity (60-80%) and the light/dark cycle was of 12 hours. All procedures were submitted to the Animal Experimentation Ethics Committee.
# The compounds 21b, 23a and 23d were diluted firstly in 20 μl of ethanol and after in 980 μl de saline. Compounds 21e, 23e and 26b were dissolved in sterile saline and were administered by oral gavage to rats based in the weight, for example 200 g received 200 μL.
# 54 rats were randomly divided into […] groups of five-eight animals that were control group (n=8) that received only a solution of vehicle, compound 21b group (n=5) (10 mg/kg), compound 21e group (n=5) (10 mg/kg), compound 23e group (n=5) (10 mg/kg), compound 23a group (n=5) (10 mg/kg), compound 23d group (n=5) (10 mg/kg), compound 26b group (n=5) (10 mg/kg) and metformin (n=6) 300 mg/kg group. Respective treatments were made orally and daily for five days.
# as §2, with “manufactures's” for “manufacture's”
# [6] = fifth day, in relation to control group
smiles,measurement,setting,value
"COc1ccc(-c2nc(C(=O)N/N=C/c3ccccc3)cc3c2[nH]c2ccccc23)cc1 [Compound 7a, 3-(carbohydrazyl-N′-phenylsubstitute)-1-benzosubstitute-β-carbolinic-3-carbohydrazide]",glycemic levels of animals that received an oral glucose overload,"[1]; after 3 days, 0.5 mg/kg oral once a day",only the 1 and 5 mg/kg doses reduced statistically significant the glycemic levels
same,glycemic levels of animals that received an oral glucose overload,"[1]; after 3 days, 1 mg/kg oral once a day",reduced statistically significant the glycemic levels
same,glycemic levels of animals that received an oral glucose overload,"[1]; after 3 days, 5 mg/kg oral once a day, 5 mg/kg",reduces the glycemic levels; also recorded: reduced statistically significant the glycemic levels
same,glycemic levels of animals that received an oral glucose overload,"[1]; first day, 5 mg/kg oral, 60 min after glucose 2 g/kg",reduces the glycemic levels
same,plasma cholesterol levels,[2],inhibition of plasma cholesterol levels
same,larvae-to-adult viability and development time,[3]; in vivo,not affected
same,mortality or behavioral disorders (acute signs of toxicity),[4],did not produce mortality or any behavioral disorders
"Cl.NCCNC(=O)c1cc2c([nH]c3ccccc32)c(-c2ccc(Cl)cc2)n1 [Compound 21b, N-(2-aminoethyl)-1-(4-chlorophenyl)-9H-pyrido[3,4-b]indole-3-carboxamide]",glucose levels in oral glucose tolerance test,[5]; [6],reduced the glucose levels
"COc1ccc(-c2nc(C(=O)N3CCOCC3)cc3c2[nH]c2ccccc23)cc1.Cl [Compound 23a, [1-(4-methoxyphenyl)-9H-pyrido[3,4-b]indol-3-yl]-4-morpholinyl-Methanone Hydrochloride]",glucose levels in oral glucose tolerance test,[5]; first day,significant reduction in glucose levels
"COc1ccc(-c2nc(C(=O)NCCN(C)C)cc3c2[nH]c2ccccc23)cc1 [Compound 23b, N-(2-dimethylaminoethyl)-1-(4-methoxyphenyl)-9H-pyrido[3,4-b]indole-3-carboxamide hydrochloride]",glucose levels in oral glucose tolerance test,[5]; [6],reduced the glucose levels
same,glucose levels in oral glucose tolerance test,[5]; third day,significant reduction in glucose levels
"COc1ccc(-c2nc(C(=O)NCCO)cc3c2[nH]c2ccccc23)cc1.Cl [Compound 23d, N-(2-hydroxyethyl)-1-(4-methoxyphenyl)-9H-pyrido[3,4-b]indole-3-carboxamide hydrochloride]",glucose levels in oral glucose tolerance test,[5]; [6],reduced the glucose levels
"COc1ccc(-c2nc(C(=O)NCCCCN)cc3c2[nH]c2ccccc23)cc1.Cl [Compound 23e, N-(4-aminobutyl)-1-(4-methoxyphenyl)-9H-pyrido[3,4-b]indole-3-carboxamide hydrochloride]",glucose levels in oral glucose tolerance test,[5]; [6],reduced the glucose levels
same,glucose levels in oral glucose tolerance test,[5]; first day,significant reduction in glucose levels
same,glucose levels in oral glucose tolerance test,[5]; third day,significant reduction in glucose levels
"CC(=O)[O-].CC(=O)[O-].[Cu+2] [Cupric acetate, cupric acetate, reference compound]",Larva-to-adult viability (% emerged adult flies),"[3]; 350 μg/ml, positive control (toxic)",0%
